Laboratory results as given in ChEMBL document CHEMBL3885881, “DrugMatrix”.

Organism: Rattus norvegicus
Assay: DrugMatrix - Regimen: Daily Repeat
Assay type: toxicity, organism-based, Sprague-Dawley
Set-up: regimen Daily Repeat, gender Male, age 6-8 weeks
Settings: in vivo, po, route oral GAVAGE, […]; for ABSOLUTE BASOPHIL / ABSOLUTE EOSINOPHIL / ABSOLUTE LYMPHOCYTE / ABSOLUTE MONOCYTE / ABSOLUTE SEGMENTED NEUTROPHIL / BASOPHIL / EOSINOPHIL / ERYTHROCYTE COUNT / HEMATOCRIT / HEMOGLOBIN / LEUKOCYTE COUNT / LYMPHOCYTE / MEAN CORPUSCULAR HEMOGLOBIN / MEAN CORPUSCULAR HEMOGLOBIN CONCENTRATION / MEAN CORPUSCULAR VOLUME / MONOCYTE / NEUTROPHIL / NUCLEATED RED BLOOD CELLS / PLATELET COUNT: tissue Blood; for ALANINE AMINOTRANSFERASE / ALBUMIN / ALKALINE PHOSPHATASE / ASPARTATE AMINOTRANSFERASE / BLOOD UREA NITROGEN / CARBON DIOXIDE / CHLORIDE / CHOLESTEROL / CREATINE PHOSPHOKINASE / CREATININE / GLUCOSE / LACTATE DEHYDROGENASE / LIPASE / PHOSPHORUS / POTASSIUM / SODIUM / TOTAL BILIRUBIN / TOTAL PROTEIN / URIC ACID: tissue Plasma
[1] = 0 mg/kg, 72 h, dose level Control, time 3 day
[2] = 0 mg/kg, 120 h, dose level Control, time 5 day
[3] = 10 mg/kg, 72 h, dose level Low, time 3 day

SMILES: COCCOC(=O)C1=C(C)NC(C)=C(C(=O)OC(C)C)C1c1cccc([N+](=O)[O-])c1 (centres undefined) [NIMODIPINE]
- ABSOLUTE BASOPHIL [1]: 0 CELLS/uL
- ABSOLUTE EOSINOPHIL [1]: 0 CELLS/uL
- ABSOLUTE LYMPHOCYTE [1]: 9244.83 CELLS/uL
- ABSOLUTE MONOCYTE [1]: 102 CELLS/uL
- ABSOLUTE SEGMENTED NEUTROPHIL [1]: 869.83 CELLS/uL
- BASOPHIL [1]: 0%
- EOSINOPHIL [1]: 0%
- ERYTHROCYTE COUNT [1]: 5.43 x10E6/uL
- HEMATOCRIT [1]: 34.03%
- HEMOGLOBIN [1]: 13.27 G/DL
- LEUKOCYTE COUNT [1]: 10.22 x10E3/uL
- LYMPHOCYTE [1]: 90.33%
- MEAN CORPUSCULAR HEMOGLOBIN [1]: 24.48 pg
- MEAN CORPUSCULAR HEMOGLOBIN CONCENTRATION [1]: 39.03 G/DL
- MEAN CORPUSCULAR VOLUME [1]: 62.75 fL
- MONOCYTE [1]: 1%
- NEUTROPHIL [1]: 8.67%
- NUCLEATED RED BLOOD CELLS [1]: 0.17 /100WBC
- PLATELET COUNT [1]: 989 x10E3/uL
- ALANINE AMINOTRANSFERASE [1]: 77 u/L
- ALBUMIN [1]: 3.97 G/DL
- ALKALINE PHOSPHATASE [1]: 464.83 u/L
- ASPARTATE AMINOTRANSFERASE [1]: 89.83 u/L
- BLOOD UREA NITROGEN [1]: 12.17 mg/dL
- CARBON DIOXIDE [1]: 34.17 mmol/L
- CHLORIDE [1]: 98.33 MEQ/L
- CHOLESTEROL [1]: 75.17 mg/dL
- CREATINE PHOSPHOKINASE [1]: 367.67 u/L
- CREATININE [1]: 0.16 mg/dL
- GLUCOSE [1]: 142.67 mg/dL
- LACTATE DEHYDROGENASE [1]: 139.33 u/L
- LIPASE [1]: 9.5 u/L
- PHOSPHORUS [1]: 10.85 mg/dL
- POTASSIUM [1]: 6.38 MEQ/L
- SODIUM [1]: 143.2 MEQ/L
- TOTAL BILIRUBIN [1]: 0.2 mg/dL
- TOTAL PROTEIN [1]: 5.77 G/DL
- URIC ACID [1]: 0.7 mg/dL
- ABSOLUTE BASOPHIL [2]: 0 CELLS/uL
- ABSOLUTE EOSINOPHIL [2]: 0 CELLS/uL
- ABSOLUTE LYMPHOCYTE [2]: 8295.33 CELLS/uL
- ABSOLUTE MONOCYTE [2]: 84.67 CELLS/uL
- ABSOLUTE SEGMENTED NEUTROPHIL [2]: 970 CELLS/uL
- BASOPHIL [2]: 0%
- EOSINOPHIL [2]: 0%
- ERYTHROCYTE COUNT [2]: 5.74 x10E6/uL
- HEMATOCRIT [2]: 36.22%
- HEMOGLOBIN [2]: 13.85 G/DL
- LEUKOCYTE COUNT [2]: 9.35 x10E3/uL
- LYMPHOCYTE [2]: 88.67%
- MEAN CORPUSCULAR HEMOGLOBIN [2]: 24.13 pg
- MEAN CORPUSCULAR HEMOGLOBIN CONCENTRATION [2]: 38.25 G/DL
- MEAN CORPUSCULAR VOLUME [2]: 63.08 fL
- MONOCYTE [2]: 1%
- NEUTROPHIL [2]: 10.33%
- NUCLEATED RED BLOOD CELLS [2]: 0.17 /100WBC
- PLATELET COUNT [2]: 883.83 x10E3/uL
- ALANINE AMINOTRANSFERASE [2]: 64.5 u/L
- ALBUMIN [2]: 4.12 G/DL
- ALKALINE PHOSPHATASE [2]: 425.67 u/L
- ASPARTATE AMINOTRANSFERASE [2]: 88.5 u/L
- BLOOD UREA NITROGEN [2]: 14.17 mg/dL
- CARBON DIOXIDE [2]: 30.5 mmol/L
- CHLORIDE [2]: 100.33 MEQ/L
- CHOLESTEROL [2]: 55.33 mg/dL
- CREATINE PHOSPHOKINASE [2]: 287.17 u/L
- CREATININE [2]: 0.2 mg/dL
- GLUCOSE [2]: 162.83 mg/dL
- LACTATE DEHYDROGENASE [2]: 111.33 u/L
- LIPASE [2]: 10.5 u/L
- PHOSPHORUS [2]: 10.32 mg/dL
- POTASSIUM [2]: 5.13 MEQ/L
- SODIUM [2]: 143.93 MEQ/L
- TOTAL BILIRUBIN [2]: 0.17 mg/dL
- TOTAL PROTEIN [2]: 5.9 G/DL
- URIC ACID [2]: 0.77 mg/dL
- ABSOLUTE BASOPHIL [3]: 0 CELLS/uL
- ABSOLUTE EOSINOPHIL [3]: 0 CELLS/uL
- ABSOLUTE LYMPHOCYTE [3]: 10257 CELLS/uL
- ABSOLUTE MONOCYTE [3]: 34.33 CELLS/uL
- ABSOLUTE SEGMENTED NEUTROPHIL [3]: 975.33 CELLS/uL
- BASOPHIL [3]: 0%
- EOSINOPHIL [3]: 0%
- ERYTHROCYTE COUNT [3]: 5.25 x10E6/uL
- HEMATOCRIT [3]: 33.27%
- HEMOGLOBIN [3]: 13.03 G/DL
- LEUKOCYTE COUNT [3]: 11.27 x10E3/uL
- LYMPHOCYTE [3]: 92%
- MEAN CORPUSCULAR HEMOGLOBIN [3]: 24.83 pg
- MEAN CORPUSCULAR HEMOGLOBIN CONCENTRATION [3]: 39.2 G/DL
- MEAN CORPUSCULAR VOLUME [3]: 63.37 fL
- MONOCYTE [3]: 0.33%
- NEUTROPHIL [3]: 7.67%
- NUCLEATED RED BLOOD CELLS [3]: 0 /100WBC
- PLATELET COUNT [3]: 1138 x10E3/uL
- ALANINE AMINOTRANSFERASE [3]: 72.67 u/L
- ALBUMIN [3]: 3.87 G/DL
- ALKALINE PHOSPHATASE [3]: 445.67 u/L
- ASPARTATE AMINOTRANSFERASE [3]: 88 u/L
- BLOOD UREA NITROGEN [3]: 12 mg/dL
- CARBON DIOXIDE [3]: 33 mmol/L
- CHLORIDE [3]: 99 MEQ/L
- CHOLESTEROL [3]: 69.67 mg/dL
- CREATINE PHOSPHOKINASE [3]: 468 u/L
- CREATININE [3]: 0.2 mg/dL
- GLUCOSE [3]: 153.33 mg/dL
- LACTATE DEHYDROGENASE [3]: 135.67 u/L
- LIPASE [3]: 10.67 u/L
- PHOSPHORUS [3]: 11.03 mg/dL
- POTASSIUM [3]: 6.2 MEQ/L
- SODIUM [3]: 144.23 MEQ/L
- TOTAL BILIRUBIN [3]: 0.17 mg/dL
- TOTAL PROTEIN [3]: 5.57 G/DL
- URIC ACID [3]: 0.7 mg/dL
